Entries after “also recorded” stand apart in the source; their conditions may differ. Marks after values point to notes of the source that are not given here.
What was measured:
EAE [1] = settings: depending on dose (Harbige et al); cited from earlier work
EAE [2] = settings: guinea-pig (Meade et al 1978); cited from earlier work
[3] = system: multiple sclerosis patients; settings: about 20 g/day; cited from earlier work
[4] = system: MOG-induced CREAE in SJL Mice; test: MOG-induced CREAE in SJL mice, molecular species comparison of GLA; assay type: in vivo; settings: for Mean Clinical Score / No. with EAE: 100 μl of test lipid
Source text: γ-Linolenic acid (18:3n -6, GLA) is known to be rapidly converted to longer-chain omega-6 polyunsaturated fatty acids dihomo-γ-linolenic acid and arachidonic acid in vivo (Phylactos et al 1994, Harbige et al 1995, 2000). Therefore to increase the level of membrane long chain omega-6 fatty acids in MS the inventors have reviewed results obtained with several GLA-containing oils:- both fungal (from Mucor javanicus) and plant (Borago officianalis), Evening primrose Oenothera spp. or Blackcurrant Ribes spp) as well as a synthetic tri-GLA oil as GLA delivery systems in an in vivo experimental animal model of MS known as chronic relapsing experimental autoimmune encephalomyelitis (CREAE).
Experimental autoimmune encephalomyelitis (EAE) is an autoimmune inflammatory disease of the CNS, with or without demyelination, inducible in rodents and other mammalian species. […] Chronic relapsing and demyelinating EAE models (CREAE), which are characterised by demyelination and relapse phases, are therefore currently the animal models of choice for MS research (Fazakerley 1997).

Row | SMILES | Protection in acute rat EAE (EAE [1]) | Incidence and severity of EAE (EAE [2]) | Duration and severity of relapses of multiple sclerosis [3] | Mean Clinical Score [4] | No. with EAE [4] | Protective effect in CREAE (in words) ([4]; compared with borage oil)
1 | CCCCC/C=C\C/C=C\CCCCCCCC(=O)O [linoleic acid] | dose-dependent action on the clinical severity but did not abolish it | partially suppresses the incidence and severity of EAE | relapses were less frequent, less severe and of shorter duration than controls |  |  | 
2 | CCCCC/C=C\C/C=C\C/C=C\CCCCC(=O)OCC [EE-GLA, Ethyl-Ester-GLA] |  |  |  | 3.0 ± 0.8 | 5/6 | 
3 | CCCCC/C=C\C/C=C\C/C=C\CCCCC(=O)O [γ-linolenic acid] | fully protective |  |  |  |  | 
4 | CCCCC/C=C\C/C=C\C/C=C\CCCCC(=O)OCC(COC(=O)CCCC/C=C\C/C=C\C/C=C\CCCCC)OC(=O)CCCC/C=C\C/C=C\C/C=C\CCCCC [TG-GLA, Triacylglycerol-GLA] |  |  |  | 1.0 ± 1.3^c | 3/6 | protective effects similar to that of the borage oil; also recorded: effective at a lower dose level than the borage oil

Reference: patent publication US7935729B2, “Use of triglyceride oils containing γ-linolenic acid residues and linoleic acid residues for the treatment of neurodegenerative disease” (BTG International Limited, priority 2003, dated 2011)
